# Reference: ChEMBL document CHEMBL5727525, “4,5-substituted picolinamide and picolinonitrile metabotropic glutamate receptor 2 negative allosteric modulators” (2020)
# pIC50: −log10 of the molar value.
# Assay: Ca2+ Flux Assay: GÎ±15 HEK293 cells stably expressing rat mGlu2 were plated in black-walled, clear-bottomed, poly-D-lysine coated 384-well plates in 20 Î¼L of assay medium (DMEM containing 10% dialyzed FBS, 20 mM HEPES, and 1 mM sodium pyruvate) at a density of 12K cells/well. The cells were grown overnight at 37° C. in the presence of 5% CO2. The next day, medium was removed and the cells incubated with 20 Î¼L of 2.3 Î¼M Fluo-4, AM prepared as a 2.3 mM stock in DMSO and mixed in a 1:1 ratio with 10% (w/v) pluronic acid F-127 and diluted in assay buffer (Hank's balanced salt solution, 20 mM HEPES, and 2.5 mM probenecid) for 45 minutes at 37° C. Dye was removed, 20 Î¼L of assay buffer was added, and the plate was incubated for 5 minutes at room temperature.
row,SMILES,pIC50
1,Cn1cc(-c2cc(C(N)=O)ncc2OCc2ccc(C(F)(F)F)nc2)cn1,< 5.00
2,C[C@@H]1CN(CCCOc2cnc(C(N)=O)cc2-c2ccc(F)cc2)C[C@H](C)O1,< 5.00
3,C[C@@H]1CN(CCOc2cnc(C(N)=O)cc2-c2ccc(F)cc2)C[C@H](C)O1,< 5.00
4,NC(=O)c1cc(-c2ccc(F)cc2)c(OCCOc2ccccc2F)cn1,5.70
5,C[C@@H]1CN(CCOc2cnc(C#N)cc2-c2ccc(F)cc2)C[C@H](C)O1,< 4.52
